In series [1] the test system is CD4+ lymphocytes. The following applies: daily x5 schedule, low malignant lymphomas; cited from earlier work.
The conditions of series [2]: i.v. over 30 minutes once per week for 3 weeks followed by a week's rest; cited from earlier work.
The test system of series [3] is heart allografts. Briefly: Rat heart-transplantation model (heterotopic heart allograft). Further details: Leucopenia: dose or concentration left out as unconfirmed. The following applies: for Graft rejection: histology graded by ISHT criteria. The format is in vivo. As for the experimental part: Inbred male LEWIS (LEW) rats and Brown Norway (BN) rats weighing 200-270 g were obtained from “Zentralinstitut fur Versuchstierzucht”, Hannover, Germany. Heterotopic heart transplants were performed using microsurgical techniques as described by Schmid et al., Eur. Surg. […] Postoperatively, all animals were given water and standard rat diet ad libitum.
dFdC was administered subcutaneously once daily for 50 consecutive days beginning immediately after surgery. […] The control group (n=8) received no treatment.
The beating activity of heart allografts was determined by daily palpation. Animals were sacrificed by an overdose of ether whenever cardiac allografts stopped beating and hearts and all vital organs were excised for histology. Multiple sections of the left ventricle of the transplant and of every native organ were fixed in 4% buffered formalin. Paraffin-embedded probes were cut into 5-jim-thick sections and stained with hematoxylin and eosin. Slides were assessed by a pathologist blinded to the study and rejection was graded according to the ISHT criteria.

In series [4] the test system is PHA-activated T-lymphocytes (peripheral blood mononuclear cells). Briefly: T-lymphocyte colony formation (lymphocyte colony-growth assay, microagar culture). Format: cell-based. The following applies: 168 h, PBMC, colonies scored after 7 days, read-out: 50% inhibition of PHA-induced lymphocyte proliferation (colony formation). As for the experimental part: dFdC is commercially available. […] Aye, Blood 58, 1043 (1981). Therefore, peripheral blood mononuclear cells (PBMC) were cultured with phytohemagglutinin (PHA) and varying concentrations of dFdC in the microagar culture system described by Petzer et al., Blood 78, 2583 (1991). PBMCs were suspended in Iscove s medium containing 20% fetal calf serum and 0.3% agar. Subsequently 250 μl aliquots of this suspension containing 2×10^5 PBMCs were plated in multiwell tissue culture plates. The agar was allowed to solidify at room temperature and then was overlayered with 250 μl medium containing 0.5% PHA and 0.5% 2-mercaptoethanol (1×10^−4 mol/l final concentrations). The cultures were incubated at 37° C. in a fully humidified atmosphere containing 5% CO2 and colonies were scored using an inverted microscope after 7 days of incubation.

For series [5] the following is noted: daily x5 schedule, 9 mg/m^2 dose level; cited from earlier work.
Series [6] relates to CD4+ and CD8+ lymphocyte subsets. To be noted: after repeated applications; cited from earlier work.

The source of these data is patent publication US6555518B1, “Gemcitabine as an immunosuppressive pharmaceutical agent” (Eli Lilly and Company, priority 1998, dated 2003).

Consider `Nc1nc(Cl)nc2c1ncn2[C@H]1C[C@H](O)[C@@H](CO)O1` [2-chlorodeoxyadenosine], for which the “Duration of severe suppression of CD4+ lymphocytes” value in series [1] is on record as “more than 12 months”.

As to `Nc1ccn([C@@H]2O[C@H](CO)[C@@H](O)C2(F)F)c(=O)n1` [dFdC, 2′-deoxy-2′,2′-difluorocytidine], the “Myelosuppression with severe infections (WHO grade III/IV), share of patients” value in series [2] is listed as “less than 1%”. The Allograft survival worked out at 7.3 days in series [3] (25 μg/kg/day s.c. once daily for 50 days); 9.2 days in series [3] (50 μg/kg/day s.c. once daily for 50 days); 15.7 days in series [3] (75 μg/kg/day s.c. once daily for 50 days); 152.8 days in series [3] (100 μg/kg/day s.c. once daily for 50 days); 144.2 days in series [3] (125 μg/kg/day s.c. once daily for 50 days); 41.5 days in series [3] (150 μg/kg/day s.c. once daily for 50 days). Further, the results for the Allograft survival in series [3] (300 μg/kg/day s.c. once daily for 50 days), in series [3] (600 μg/kg/day s.c. once daily for 50 days) and in series [3] (6000 μg/kg/day s.c. once daily for 50 days) were 16.0 days, 10.5 days and 4.0 days, respectively. Besides, the Graft rejection entry in series [3] (25 μg/kg/day) is given as “Grade IV”; in series [3] (50 μg/kg/day), “Grade IV”; in series [3] (75 μg/kg/day) it was “Grade IV”; in series [3] (100 μg/kg/day), “Grade IV”; in series [3] (125 μg/kg/day), “Grade IV”; in series [3] (150 μg/kg/day), “None”. Further, the Graft rejection entry in series [3] (300 μg/kg/day), in series [3] (600 μg/kg/day) and in series [3] (6000 μg/kg/day) was “None” throughout. Further, the “Graft survival compared to untreated controls” value in series [3] (all animals given between 75 and 600 μg/kg BW) is on record as “prolonged”. Besides, the Leucopenia entry in series [3] (all animals of all dose groups) is on record as “Dose-dependent leucopenia occurred in all animals of all groups”. The Reversibility of leucopenia result in series [3] (animals given less than 150 μg/kg) is “reversible”. Besides, the “Toxicity at high dose” value in series [3] (more than 125 μg/kg BW) was “overimmunosuppression and irreversible myelotoxicity”. For the same compound, the IC50 in series [4] was found to be 3.25 ± 0.9 nM. In series [5], the Nonhaematologic toxicity entry is “significant amount of nonhaematologic toxicity including sporadic fever and severe hypertension”. In addition, the “Reduction of CD4+ and CD8+ lymphocyte subsets” value in series [6] is on record as “no significant reduction”.
